Test results published in publication PMC7480105, “Wbox2: A clathrin terminal domain–derived peptide inhibitor of clathrin-mediated endocytosis” (The Journal of Cell Biology, 2020).
No end group written: not given here.

Tested on: TfnR uptake via CME in ARPE/HPV cells
Assay: TfnR uptake (in-cell ELISA) after peptide preincubation
Assay type: cell-based
Settings: 60-min preincubation with peptide at 37°C, concentration curves, n = 4 replicates (Fig. 7 F), read-out: IC50 for inhibition of TfnR uptake
Experimental: Peptides encoding the TAT sequence (YGRKKRRQRRR) followed by 10 amino acid sequences covering the four reported binding sites on the clathrin terminal domain (Fig. 7 A) were synthesized by GenScript (Piscataway, NJ) with >95% purity. Peptides were dissolved in dH2O and further diluted in PBS4+ (1× PBS buffer plus 0.2% BSA, 1 mM CaCl2, 1 mM MgCl2, and 5 mM D-glucose) or cell culture medium (for imaging) when applied to cells. Peptide solutions were stored at −20°C.
Internalization of TfnR, CD44, CD59, and Biotin-Tfn was quantified by in-cell ELISA following established protocols ([Conner and Schmid, 2003]; [Srinivasan et al., 2018]). Cells were seeded in 96-well plates (Costar) at 60–70% confluence and grown overnight. Before the assay, cells were starved for 30 min in PBS4+ at 37°C or treated with peptides in PBS4+ at 37°C for the indicated times. After starvation, cells were moved to 4°C, and culture medium was replaced with cold PBS4+ containing 5 µg/ml HTR-D65 (anti-TfnR mAb; [Schmid and Smythe, 1991]), anti-human CD44 or anti-human CD59 (BD PharMingen) or 5 µg/ml Biotin-Tfn (Sigma-Aldrich). For single-round assays, the above reagents were kept with cells for 20 min at 4°C and then washed out before uptake assay. For multiround assays, the above reagents were kept with cells throughout the uptake process. In parallel, some cells were kept at 4°C for the measurement of surface-bound ligands and blank controls, and some were incubated in a 37°C water bath for the indicated times. Acid wash (0.2 M acetic acid and 0.2 M NaCl, pH 2.3) was used to remove surface-bound antibodies, followed by washing with cold PBS. All were fixed with 4% PFA (Electron Microscopy Sciences) in PBS for 30 min at 37°C. 0.1% Triton X-100 was added for 6.5 min to permeabilize cells, followed by addition of blocking buffer. HTR-D65–, CD44-, and CD59-treated cells were blocked with Q-PBS (PBS, 2% BSA, 0.1% lysine, and 0.01% saponin, pH 7.4), and Biotin-Tfn–treated cells were blocked with 2% casein. Surface-bound and internalized HTR-D65, CD44, and CD59 were probed with goat anti-mouse antibody conjugated with HRP (Sigma-Aldrich), and Biotin-Tfn was probed with Streptavidin-POD conjugate (Sigma-Aldrich). Color was developed using o-phenylenediamine dihydrochloride (OPD) solution (Sigma-Aldrich), and absorbance was read at 490 nm (Biotek Synergy H1 Hybrid Reader). Cell number variation among wells was accounted for by bicinchoninic acid assay reading at 562 nm.

Sequence	IC50
YGRKKRRQRRRLAGCQIINYR [Wbox1]	~3 µM
YGRKKRRQRRRKAGKTLQIFN [Cbox1]	~60 µM
YGRKKRRQRRRKTLQIFKSKI [Cbox2]	> 100 µM
